In one series the test system is normal beagle dogs. Description: Pharmacodynamic activity: systolic blood pressure decrease in telemetered dogs after oral dose. It is filed as in vivo, dog. As to conditions: beagle dogs (n=3), single oral dose 30 mg/kg in PEG300, first 2 hr post-dose relative to baseline SBP. As to the method: The effect of certain compounds from Table 1 on blood pressure in freely moving telemetered normal beagle dogs (n=3) after single oral doses was evaluated. The animals were surgically implanted with a pressure transducer equipped telemetry transmitter. The transmitter assembly was secured internally and a fluid-filled catheter was placed into the abdominal aorta to allow for collection of cardiovascular data. To evaluate cardiovascular effects, 3 dogs were given single oral doses of a compound from Table 1 (100% PEG300 in gelatin capsules) at a concentration of 100 mg/mL and at doses of 30 mg/kg. Systemic blood pressure and heart rate were evaluated continuously for 2 hr before and for 24 hr after dosing (results not shown). To compare the pharmacodynamic activity for all tested compounds, the mean systolic blood pressure (SBP) decrease during the first 2 hr post-dose was determined relative to the baseline SBP (30-120 min pre-dose) (Table 6).

The nature of series [1]: In vitro plasma stability, human plasma. Format: in vitro ADME. The conditions noted are these: male, pH 7.4, 5 μM, 37° C., sampling 0-360 minutes, read-out: T1/2 Human. The gist of the method: (§1)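 Pooled plasma at pH 7.4 with sodium heparin or citrate anticoagulant; compound at 5 μM, 37° C with shaking, triplicate samples at 0–360 min. Quenched in acetonitrile/1% formic acid with internal standard; LC-MS/MS peak-area ratios without standard curve; T1/2 from percent remaining.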

Series [2] is described as follows: In vitro plasma stability, rat plasma. Format: in vitro ADME. As to conditions: male, pH 7.4, 5 μM, 37° C., sampling 0-360 minutes, read-out: T1/2 Rat. A digest of the protocol: as §1
Series [3] is described as follows: Nitroxyl production via 1H NMR protocol using TXPTS (NMR half-lives). Format: physicochemical. As to conditions: phosphate buffer containing TXPTS (HNO trap); pH 7.4, 0.25 M phosphate buffer, 5 mM TXPTS, 1 mM compound, 37° C., spectra over 8 hours; read-out: NMR-T1/2. As to the method: The ^1H NMR procedure used was based on an HPLC protocol developed by S. Bruce King and coworkers (Reisz et al., Org. Lett. 11:2719-2721 (2009), Reisz et al., J. Am. Chem. Soc. 133:11675-11685 (2011) and Guthrie et al., J. Org. Chem. 80:1338-1348 (2015)). According to this procedure, the amount of HNO released from a pyrazolone derivative compound was determined by reacting the compound with the triarylphosphine TXPTS and monitoring the resulting aza-ylide formation.
The procedure for determining the amount of HNO released from certain compounds from Table 1 was as follows.
Tris(4,6-dimethyl-3-sulfanatophenyl)phosphine trisodium salt (TXPTS) was of reagent grade and used without further purification. Synthetic TXPTS aza-ylide was obtained through the amidation of TXPTS using hydroxylamine O-sulfonic acid in water (Armstrong et al., Org. Lett. 7:713-716 (2005)). All other materials were of reagent grade and used without further purification.
All ^1H NMR spectra were obtained in an adjusted-to pH 7.4 solution containing 0.25 M phosphate buffer, 0.2 mM of the metal chelator diethylenetriaminepentaacetic acid (“DTPAC”), and 10% D2O on a Bruker Avance 250 MHz FT-NMR spectrometer using a 1 second presaturation pulse to suppress the water signal. To a nitrogen-purged NMR solution (1.00 mL) containing TXPTS (3.3 mg, 5 mM) was added a pyrazolone derivative compound (10 μL of 100 mM in methanol-d4) to give 1 mM as the initial concentration of the pyrazolone derivative compound. The solution was briefly mixed, about 0.5 mL was transferred to a nitrogen-purged NMR tube and an initial ^1H NMR spectrum (time=0) was obtained. Thereafter, the sample was internally incubated at 37° C. and ^1H NMR spectra were collected at regular intervals for 8 hours.
The HNO donating pyrazolone derivative compound, by-product (e.g., (III) in Scheme 1), and TXPTS aza-ylide concentrations, determined from NMR spectra taken over 8 hours, were plotted as a function of time, and each data set was fitted to a single exponential function. The NMR half-lives for the disappearance of the HNO donating pyrazolone derivative compound and the appearance of by-product and TXPTS aza-ylide were determined from the respective plots. […] A control compound, compound 7 disclosed in WO 2013/059194, was also evaluated.

A short description of series [4]: In vitro plasma stability, dog plasma. The conditions noted are these: male, pH 7.4, 5 μM, 37° C., sampling 0-360 minutes, read-out: T1/2 Dog. Format: in vitro ADME. A digest of the protocol:
as §1

Series [5] can be described thus: Solid-state stability at 40° C. and 75% RH (purity by HPLC). It is filed as physicochemical. The conditions noted are these: solid powder; for Solid-state stability, purity by HPLC, 0 Months: 0 Months (initial); for Solid-state stability, purity by HPLC, 1 Month: in % (unit assumed). As to the method:
Solid, powdered samples of certain compounds from Table 1 were sealed in double polyethylene bags and stored at 40° C., 75% relative humidity (“RH”) for up to 3 months. A control compound, compound 7 disclosed in WO 2013/059194, was also tested. Initially and after 1 month, 2 months, and 3 months of storage, the samples were analyzed for purity, as determined by high performance liquid chromatography (“HPLC”). Additionally, certain compounds from Table 1 were admixed at a level of 50% by weight with one of the following excipients before stability testing: lactose, microcrystalline cellulose, or croscarmellose sodium. The resulting admixtures were also stored as described above then analyzed for purity of the pyrazolone derivative component, as determined by HPLC. The HPLC apparatus comprised a quaternary or binary pump, an auto sampler, a thermostated column compartment, and a UV/visible detector. The HPLC measurement conditions were as follows: • Column: Zorbax Eclipse XDB-C18, 2.1×50 mm, 3.5 μm (Agilent Technologies, Santa Clara, Calif.) • Injection Volume: 2 μL • Detection Wavelength: 220 nm • Mobile Phase A: 0.1% by volume formic acid (“FA”) in water • Mobile Phase B: 0.1% by volume FA in acetonitrile • Diluent: About 0.2 mg sample/mL acetonitrile • Gradient:
• Flow Rate: 0.8 mL/min • Column Temperature: 25° C.

Where “and” joins values, the source holds several entries; their conditions need not be identical. Equal values may be shown once.

With `CN1N=C(c2ccc(Cl)cc2)C(C)(NO)C1=O` (stereo not drawn) [Compound 1, 5-(4-chlorophenyl)-4-(hydroxyamino)-2,4-dimethyl-2,4-dihydro-3H-pyrazol-3-one], the “Mean SBP decrease” value in the series with normal beagle dogs was determined as 3 mmHg. Besides, the half-life at 5 μM in series [1] amounted to 1.4 h. Also, the half-life at 5 μM in series [2] stood at 1.33 h. Moreover, the half-life at 1 mM in series [3] was 13 h. In series [4], the half-life at 5 μM amounted to 2.47 h. Besides, in series [5], the Solid-state stability, purity by HPLC, 0 Months came to 100%; the “Solid-state stability, purity by HPLC, 1 Month” value (shortened to “Solid-state stability … 1 Month”) is 99.2; the Solid-state stability, purity by HPLC, 2 Months worked out at 99.8%; the Solid-state stability, purity by HPLC, 3 Months was found to be 99.8%.

Turning to `CN1N=C(c2ccccc2Cl)C(C)(NO)C1=O` (stereo not drawn) [Compound 2, 5-(2-chlorophenyl)-4-(hydroxyamino)-2,4-dimethyl-2,4-ddihydro-3H-pyrazol-3-one], the “Mean SBP decrease” value with normal beagle dogs is 2 mmHg. In addition, the half-life at 5 μM in series [1] amounted to 0.867 h. In addition, the half-life at 5 μM in series [2] was determined as 1.02 h. Besides, in series [3], the half-life at 1 mM is 0.833 h. Moreover, the half-life at 5 μM in series [4] amounted to 1.2 h. In addition, in series [5], the Solid-state stability, purity by HPLC, 0 Months is 91.2%; the “Solid-state stability … 1 Month” value is <10; the Solid-state stability, purity by HPLC, 2 Months was < 10%; the Solid-state stability, purity by HPLC, 3 Months is < 10%.

In the case of `CN1N=C(c2ccc(S(C)(=O)=O)cc2)C(C)(NO)C1=O` (stereo not drawn) [Compound 14, 4-(hydroxyamino)-2,4-dimethyl-5-(4-(methylsulfonyl)phenyl)-2,4-dihydro-3H-pyrazol-3-one], the “Mean SBP decrease” value with normal beagle dogs is reported as 13 mmHg. Further, the half-life at 5 μM in series [1] came out at 0.817 h; in series [2], 0.667 h; in series [4], 1.1 h. Further, the half-life at 1 mM in series [3] was determined as 6.32 h. Further, the Solid-state stability, purity by HPLC, 0 Months in series [5] stood at 99.3%. In addition, the “Solid-state stability … 1 Month” value in series [5] is 97.0 and 61.0. The same compound came in with a Solid-state stability, purity by HPLC, 2 Months in series [5] of 68%.

Regarding `CN1N=C(c2ccccc2)C(C)(NO)C1=O` (stereo not drawn) [Compound 15, 4-(hydroxyamino)-2,4-dimethyl-5-phenyl-2,4-dihydro-3H-pyrazol-3-one], the “Mean SBP decrease” value in the series on normal beagle dogs turned out to be 31 mmHg. In addition, the half-life at 5 μM was 1.33 h in series [1], 1.12 h in series [2] and 1.67 h in series [4]. Moreover, the half-life at 1 mM in series [3] amounted to 16.8 h. Also, the Solid-state stability, purity by HPLC, 0 Months in series [5] was 98.3%. Moreover, the “Solid-state stability … 1 Month” value in series [5] was <10.

The values above are taken from patent US9682938B2, “Pyrazolone derivatives as nitroxyl donors” (Cardioxyl Pharmaceuticals, Inc., priority 2014, dated 2017).
